In this assay the test system is glycogen synthase. The assay can be described thus: Glycogen Synthase (GS) Assay. Format: biochemical. Particulars: for EC50: compound concentration needed to give 50% maximum activation; for GS SC200: compound concentration needed to stimulate 200% of the enzyme activity. Here is the method:
The following tests were carried out in order to determine the activity of the compounds of formula (I).
Twelve μL per well of substrate solution containing glycogen (4.32 mg/′ml), 2.67 mM UDP-glucose, 21.6 mM phospho(enol)pyruvate and 2.7 mM NADH in 30 mM glycylglycine, pH 7.3 buffer was added into a polystyrene 384-well assay plate (BD Biosciences).
Compound solutions (8 μL/well) at various concentrations (0-300 μM) were added to the assay plate (columns 5-24). Compound solution contains 30 mM glycylglycine, pH 7.3, 40 mM KCl, 20 mM MgCl2, 9.2% DMSO, with (columns 15-24) or without (columns 5-14) 20 mM glucose 6-phosphate.
Enzyme solution (12 μL/well) containing glycogen synthase (16.88 μg/ml), pyruvate kinase (0.27 mg/ml), lactate dehydrogenase (0.27 mg/ml) in 50 mM Tris-HCl, pH 8.0, 27 mM DTT and bovine serum albumin (BSA, 0.2 mg/ml) was added to the assay plate (columns 3-24). As a blank control, enzyme solution without glycogen synthase was added into the top half wells of columns 1-2. To the bottom half wells of columns 1-2 were added a known activator, glucose 6-phosphate (at final concentration 5 mM) in addition to the enzyme solution. The reaction mixture was incubated at room temperature. The assay plate was then read for absorbance at 340 nm on an Envision reader every 3 minutes up to a total of 15 minutes.
The enzyme activity (with or without compound) was calculated by the reaction rate and represented by the optical density change (δOD) per minute. Percent stimulation of glycogen synthase activity by a compound at various concentrations was calculated by the following formula: % stimulation=100*Rs/Rt,
wherein Rs is the reaction rate of the enzyme in the presence of compound and Rt is the reaction rate of the enzyme in the absence of compound.
SC200 is defined as the compound concentration that is needed to stimulate 200% of the enzyme activity. EC50 is defined as the compound concentration that is needed to give 50% maximum activation.

Structures are written as SMILES.

`COc1cc(F)c(F)cc1-c1ccc(OCc2cccc3[nH]ncc23)cc1` [Example 1, 4-(4′,5′-Difluoro-2′-methoxy-biphenyl-4-yloxymethyl)-1H-indazole]: the EC50 was found to be 6.56 µM and the “GS SC200” value came out at 4.57 µM.

As to `COc1cc(F)c(F)cc1-c1ccc(OCc2cccc3c2cnn3CCC(=O)O)cc1` [Example 2, 3-[4-(4′,5′-Difluoro-2′-methoxy-biphenyl-4-yloxymethyl)-indazol-1-yl]-propionic acid], the midpoint of the response, the EC50, lay at 26 µM and the “GS SC200” value is 5.52 µM.

`COc1cc(F)c(F)cc1-c1ccc(OCc2ccc3cn[nH]c3c2)cc1` [Example 3, 6-(4′,5′-Difluoro-2′-methoxy-biphenyl-4-yloxymethyl)-1H-indazole]: the EC50 was 6 µM and the “GS SC200” value came out at 3.92 µM.

Turning to `COc1cc(F)c(F)cc1-c1ccc(OCc2ccc3cnn(CC(=O)O)c3c2)cc1` [Example 4, [6-(4′,5′-Difluoro-2′-methoxy-biphenyl-4-yloxymethyl)-indazol-1-yl]-acetic acid], the EC50 is 7 µM and the “GS SC200” value came to 2.56 µM.

Turning to `COc1cc(F)c(F)cc1-c1ccc(OCc2ccc3cnn(CCC(=O)O)c3c2)cc1` [Example 5, 3-[6-(4′,5′-Difluoro-2′-methoxy-biphenyl-4-yloxymethyl)-indazol-1-yl]-propionic acid], the response was half-maximal at 1.43 µM (EC50) and the “GS SC200” value worked out at 0.28 µM.

As to `COc1cc(F)c(F)cc1-c1ccc(OCc2ccc3cc[nH]c3c2)cc1` [Example 6, 6-(4′,5′-difluoro-2′-methoxy-biphenyl-4-yloxymethyl)-1H-indole], the EC50 was 5.37 µM and the “GS SC200” value amounted to 5.3 µM.

Regarding `COc1cc(F)c(F)cc1-c1ccc(OCc2ccc3ccn(CCC(=O)O)c3c2)cc1` [Example 7, 3-[6-(4′,5′-Difluoro-2′-methoxy-biphenyl-4-yloxymethyl)-indol-1-yl]-propionic Acid], the EC50 turned out to be 3 µM and the “GS SC200” value stood at 0.6 µM.

With `COc1cc(F)c(F)cc1-c1ccc(OCc2ccc3ccn(CC(=O)O)c3c2)cc1` [Example 8, [6-(4′,5′-Difluoro-2′-methoxy-biphenyl-4-yloxymethyl)-indol-1-yl]-Acetic Acid], the EC50 amounted to 5.16 µM and the “GS SC200” value turned out to be 2 µM.

`COc1cc(F)c(F)cc1-c1ccc(OCc2ccc3ccn(C(C)CC(=O)O)c3c2)cc1` (stereo not shown) [Example 9, 3-[6-(4′,5′-Difluoro-2′-methoxy-biphenyl-4-yloxymethyl)-indol-1-yl]-butyric Acid]: a half-maximal effect (EC50) was put at 2.01 µM and the “GS SC200” value amounted to 0.41 µM.

For the compound `COc1cc(F)c(F)cc1-c1ccc(OCc2cccc3[nH]ccc23)cc1` [Example 10, 4-(4′,5′-Difluoro-2′-methoxy-biphenyl-4-yloxymethyl)-1H-indole], the response was half-maximal at 3.88 µM (EC50) and the “GS SC200” value came to 2.86 µM.

Take `COc1cc(F)c(F)cc1-c1ccc(OCc2cccc3c2ccn3C(=O)CCC(=O)O)cc1` [Example 11, 4-[4-(4′,5′-Difluoro-2′-methoxy-biphenyl-4-yloxymethyl)-indol-1-yl]-4-oxo-butyric acid]: the EC50 was 2.46 µM and the “GS SC200” value amounted to 0.44 µM.

`COc1cc(F)c(F)cc1-c1ccc(OCc2cccc3c2ccn3C(=O)CC(C)(C)C(=O)O)cc1` [Example 12, 4-[4-(4′,5′-Difluoro-2′-methoxy-biphenyl-4-yloxymethyl)-indol-1-yl]-2,2-dimethyl-4-oxo-butyric acid]: the EC50 is 3.04 µM and the “GS SC200” value is 1.19 µM.

As for `COc1cc(F)c(F)cc1-c1ccc(OCc2cccc3c2ccn3CC(=O)O)cc1` [Example 13, [4-(4′,5′-Difluoro-2′-methoxy-biphenyl-4-yloxymethyl)-indol-1-yl]-acetic acid], the response was half-maximal at 3.12 µM (EC50) and the “GS SC200” value came to 0.43 µM.

Consider `COc1cc(F)c(F)cc1-c1ccc(OCc2cccc3c2ccn3CCC(=O)O)cc1` [Example 14, 3-[4-(4′,5′-Difluoro-2′-methoxy-biphenyl-4-yloxymethyl)-indol-1-yl]-propionic acid], for which a half-maximal response (EC50) required 5.49 µM and the “GS SC200” value came out at 1.46 µM.

In the case of `COc1cc(F)c(F)cc1-c1ccc(OCc2cccc3c2ccn3C(C)CC(=O)O)cc1` (stereo not shown) [Example 15, 3-[4-(4′,5′-Difluoro-2′-methoxy-biphenyl-4-yloxymethyl)-indol-1-yl]-butyric acid], it took 6.67 µM to reach a half-maximal effect (EC50) and the “GS SC200” value stood at 2.29 µM.

In the case of `COc1cc(F)c(F)cc1-c1ccc(OCc2ccc3[nH]nc(N)c3c2)cc1` [Example 16, 5-(4′,5′-Difluoro-2′-methoxy-biphenyl-4-yloxymethyl)-1H-indazol-3-ylamine], it took 2.79 µM to reach a half-maximal effect (EC50) and the “GS SC200” value came to 0.6 µM.

As for `Cn1nc(N)c2cc(COc3ccc(-c4cc(F)c(F)cc4F)cc3)ccc21` [Example 17, Methyl-5-(2′,4′,5′-trifluoro-biphenyl-4-yloxymethyl)-1H-indazol-3-ylamine], a half-maximal response (EC50) required 18.5 µM and the “GS SC200” value came to 3.9 µM.

These data come from US7947728B1, “Indole and indazole analogs as glycogen synthase activators” (Hoffmann-La Roche Inc., priority 2009, dated 2011).
